The text below walks through data of patent publication US20250295583A1, “INHALED HEDGEHOG INHIBITORS” (WBX PHARMA, INC., priority 2024, published 2025).

The format of series [1] is physicochemical. Here is the method: Four dry powder formulations were developed using spray drying with two being acceptable for human use. […] The selected bulking agents were mannitol or trehalose with dispersibility enhancer: L-leucine (˜0.55 wt % solubility limit in 50:50 EtOH: water). Two mannitol formulations and two trehalose formulations with different amounts of L-leucine 10% and 26% were made using a BLD-35 spray dryer. The tested dose was 10 mg of the formulation in a Berry RSO1 high resistance inhaler.

In another series the test system is IPF. The conditions noted are these: given orally alone as a monotherapy; cited from earlier work.
The subject of another series is IPF patients. The conditions noted are these: 21 IPF patients, cited from earlier work; for patients who discontinued the drug: combination trial of vismodegib plus pirfenidone.
The conditions of series [2]: cited from earlier work.
A short description of series [3]: Estimate of epithelial lining fluid (ELF) concentration after inhaled delivery, from pirfenidone data. The conditions noted are these: for predicted ELF concentration adjusted for 200 μg delivery: inhaled dry powder, 200 μg delivered; for predicted ELF molar concentration if 45 mg delivered: inhaled, extrapolated from pirfenidone data. Further details: species or system human. Here is the method: The physical delivery of any drug by the inhalation route may be estimated by data generated in the delivery of inhaled pirfenidone.
Again, since delivery is just a physical process, one can estimate ELF concentrations for 200 μg of taladegib delivered as noted above based on pirfenidone data.

The nature of series [4]: Estimate of systemic exposure after inhaled dosing versus oral dose. Further details: species or system human.
Procedure: This would be about 6 half-lives. Depending on the half-life in the epithelial lining fluid, one to six inhalations a day would provide adequate inhibition of hedgehog receptors. At the highest dose frequency (6 inhalations/day), the total delivered dose would approximate 3.6 mg.
Series [5] deals with subjects with mild to moderate IPF. The settings on record: cited from earlier work.
For series [6] the following is noted: cited from earlier work. This is another data set of the same source.
The conditions of series [7]: cited from earlier work. The source holds these as a separate data set.
A short description of series [8]: Published pharmacokinetics of oral vismodegib. The conditions noted are these: once daily oral therapy. In kind it is in vivo, human. The text has this:
Only unbound drug can freely cross the alveolar epithelial barrier.

Series [9] is described as follows: Accumulation factor calculation at steady state. The settings on record: half-life 3 days, dosing interval 1 day, first-order kinetics. From the text: This calculation assumes the API is being administered in a clinically effective formulation as disclosed herein, at regular intervals, and that the pharmacokinetics of the candidate compound follow first-order kinetics where the rate of drug elimination is proportional to its concentration. To calculate the multiple of the initial drug concentration at steady state (known as the “accumulation factor”), the formula:
Substitute into the formula: With τ=1 day: AF=1/(1−e^(−0.231*1))≈1/(1−e^(−0.231)).
Evaluate the exponential: e^(−0.231)≈0.794.

For series [10] the following is noted: 150 mg daily oral dose, cited from earlier work.

Several values for one entry are separate records, joined by “and”; a condition that tells them apart may be missing. Equal values may be shown once.

On to `CC(C)C[C@H](N)C(=O)O` [L-leucine], for which, in [1], the “solubility limit in 50:50 EtOH: water” value is reported as about 0.55 wt %.

Take `COC(=O)c1ccc2c(c1)NC(=O)/C2=C(\Nc1ccc(N(C)C(=O)CN2CCN(C)CC2)cc1)c1ccccc1` [nintedanib]: the “slowing of the progression of the disease” value in the series on IPF is “about 50%”.

With `Cc1ccc(=O)n(-c2ccccc2)c1` [pirfenidone], in the series on IPF patients, the “patients who discontinued the drug” value is 33.3%. Also, the “amount delivered to the lung” value in [2] (100 mg dose in the nebulizer, 24 hour urine analysis) is 45 mg. In addition, the “epithelial lining fluid concentration” value in series [2] (aerosolized, normal volunteers, average) was 135 µg/mL. In addition, the “slowing of the progression of the disease” value with IPF is given as “about 50%”.

On to `CN(C(=O)c1ccc(F)cc1C(F)(F)F)C1CCN(c2nnc(-c3ccnn3C)c3ccccc23)CC1` [taladegib, Taladegib], for which the “ELF concentration versus that achieved by 200 mg oral dose of taladegib (unbound)” value in series [3] (200 μg inhaled delivered dose) is “≈ 29 fold and > 29 fold”. For the same compound, in [3], the “predicted ELF concentration adjusted for 200 μg delivery” value was 1.16 µmol/L and the “predicted ELF molar concentration if 45 mg delivered” value was 264 µmol/L. For the same compound, the “systemic exposure/absorption relative to the oral dose” value in [4] (six inhalations a day, total 3.6 mg) is “less than 10%”. Besides, in series [5] (oral taladegib group), the alopecia is reported as 52%, the dysgeusia is reported as 57% and the muscle spasms is given as 43%. In series [5] (oral taladegib versus slight increase in placebo group), the “lung fibrosis by high resolution CT scan” value is “decreased lung fibrosis”. Also, the “improvement in FVC” value in series [5] (oral taladegib, at 12 weeks, on average, placebo 1.3% loss (p=0.035)) is 1.9%. Moreover, the plasma protein bound in series [6] is recorded as 95%. Also, in series [7] (200 mg daily oral dose), the “mean concentration at steady state” value is “about 0.8 μmol/L”. Moreover, the absorption result in series [7] (200 mg oral dose) is “approximately 30%”.

For `CS(=O)(=O)c1ccc(C(=O)Nc2ccc(Cl)c(-c3ccccn3)c2)c(Cl)c1` [vismodegib, Vismodegib], the “plasma concentration nadir, of the peak” value in [8] is “about 80%”. In series [3], the “predicted ELF concentration adjusted for 200 μg delivery” value is 1.71 µmol/L and the “predicted ELF molar concentration if 45 mg delivered” value was 388 µmol/L. Also, in [9], the “accumulation factor, steady state concentration versus after the first dose” value is “about 4.85 times”. Moreover, the total systemic exposure in series [4] (six administrations a day of a 30 mg capsule (delivered dose 600 μg each)) is on record as 3.6 mg. The “amount dissolved in 50:50 EtOH: water (wt/wt) solution” value in series [1] (50:50 EtOH: water (wt/wt)) was 4%. Besides, the “patients who discontinued the drug” value in the series on IPF patients was 42.9%. The “lung function and shortness of breath” value in the series on IPF patients (vismodegib 150 mg daily plus pirfenidone 801 mg three times daily, 24 weeks, on average) is “improved”. Further, in the series with IPF patients (vismodegib 150 mg daily plus pirfenidone, 24 weeks), the “patients reporting at least one treatment-emergent adverse event” value was “all patients”. Further, the mean unbound concentration in series [10] (steady state) was 109 ± 58 nM. Moreover, the “peak plasma concentration at steady state” value in series [10] is 22.6 ± 10.8 µmol/L. Also, the plasma protein bound in [6] is recorded as 98%. In addition, in series [6] (to albumin and alpha-1 acid glycoprotein), the “plasma protein binding, in words” value is reported as “highly protein-bound”.
